Results from patent US9622996B2, “Use of adrenergic beta-E-receptor blockers in cancer treatment” (priority 2012, dated 2017).

Experiments:
[1] = tested on: rat myocardial infarction models; test: Rat myocardial infarction (heart failure) model, ligation of left coronary artery; format: in vivo; conditions: 1 mg/kg/day intraperitoneal, 4 weeks
Method: In rat myocardial infarction models, activation of the β-3 receptor could increase level of SIRT1 in cardiomyocyte, inhibit expression of p53, improve the cardiac function and achieve anti-apoptosis effect. The myocardial infarction model was created by ligation of anterior descending branch of rat left coronary artery. BRL37344 was intraperitoneally injected at 1 mg/kg/day, and heart B-ultrasonography was performed after 4 weeks. Heart tissue was determined for apoptosis (tunel method) and expression levels of SIRT1 and p53 (western blot). The ratio of left ventricular weight to body weight (LVW/BW) is determined. It can be seen from the results shown in FIGS. 3 to 5, that BRL37344 decreases p53 expression, cardiac cell apoptosis, and value of LVW/BW of heart failure rat, increases SIRT1 expression, alleviate cardiac hypertrophy and improve cardiac function.

[2] = tested on: adipose-derived stem cells of rats; test: β-Galactosidase staining of adipose-derived stem cells; format: cell-based, rat; conditions: 10^−7M, 24 h, compared with SR59230A
Method: Blockage of the β-3 receptor could increase level of β-galactosidase in adipose-derived stem cells and promote stem cell aging. BRL37344 and SR59230A were used to treat adipose-derived stem cells of rats each at 10^−7M. After 24 h, cells were fixed using paraformaldehyde, and stained and photographed according to the specification of β-Galactosidase Staining Kit. BRL37344 decreased the level of β-galactosidase in adipose-derived stem cells when compared with SR59230A, indicating agonisting of adrenergic β3 receptors of adipose-derived stem cells achieves anti-aging effect.

[3] = tested on: cardiac fibroblast of rats; test: mTOR/α-Tubulin and Rictor/α-Tubulin double staining in cardiac fibroblast; format: cell-based, rat; conditions: 10^−7M, confocal microscope
Source text: Beta-3 receptor promoted binding of mTORC2 to α-Tubulin in spindle apparatus. BRL37344 was used to treat cardiac fibroblast of rats at 10^−7M. The cells were undergone mTOR/α-Tubulin immunohistochemical double staining and Rictor/α-Tubulin immunohistochemical double staining, and observed under confocal microscope.

rat cardiomyocyte = test: Western blot of mTOR and Rictor proteins (mTOR/Rictor complex); format: cell-based; conditions: 10^−7M, 24 h, compared to the control shRNA
Method: Activation of the β3 receptor could increase mTOR/Rictor complex in MCF-7 cells. shRNA of β3 adrenergic receptor, control shRNA, BRL37344 and SR59230A were used to treat rat cardiomyocyte each at 10^−7M. After 24 h, total protein was extracted and subjected to western blot to determine the expression amount of mTOR and Rictor proteins.

K562 leukaemia cells = test: miR-16-1/miR-15a expression, apoptosis and mitochondrial readouts in K562 cells; format: cell-based; conditions: K562, 10^−7M
Method: (§1) SR59230A promoted cell apoptosis by increase expression of miR-16-1 and miR-15a in HL-60 and K562 leukaemia cells. SR59230A at 10^−7M was used to treat HL-60 and K562 leukaemia cells. 8 h following the treatment, total microRNA was extract and then reversely transcribed for quantitative PCR to determine the expression of miR-16-1 and miR-15a. Flow cytometry was used to detect earlier cell apoptosis label Annexin V/PI and apoptosis rate. MitoTracker Red CMXRos was used to detect number of mitochondrion. JC1 was used to determine mitochondrial membrane potential. Autophagosome was determined by monodansylcadaverine (MDC) staining, and observed and countered under transmission electron microscope. Intracellular ATP level was determined by ATP Kit. […] SR59230A could decrease mitochondrial membrane potential of HL-60 and K562 cells, induce mitophagy, decrease mitochondrial content and reduce intracellular ATP level.

HL-60 leukaemia cells = test: miR-16-1/miR-15a expression, apoptosis and mitochondrial readouts in HL-60 cells; format: cell-based; conditions: HL-60, 10^−7M
Method: as §1

H1975 lung cancer cells = test: Apoptosis of H1975 lung cancer cells; format: cell-based
Method: (§2) A target sequence was selected from the DNA sequence of β3AR gene using computer program. The DNA fragment of the target sequence was synthesized and cloned on a vector. Human U6 promoter was cloned to pcDNA3/neo vector to clone DNA fragment of shRNA. The plasmid vector was tranfected into cells using lipofection2000. 48 h following the tranfection, siRNA was expressed in the cells. The cells were subjected to Annexin V/PI double staining. Apoptosis rate was determined by flow cytometry.

H1299 lung cancer cells = test: Apoptosis of H1299 lung cancer cells; format: cell-based
Method: as §2

MCF7 cells = test: Mitochondrial autophagy in MCF7 cells (MitoTracker, LC3II Western blot); format: cell-based; conditions: MCF7, 10^−7M, 18 h
Method: β3 receptor regulated mitochondrial autophagy. MCF7 cells were treated by SR59230A (10^−7M) for 18 h. MitoTracker was used to label mitochondrion at 37° C. for 20 min. The cells were washed with PBS for 3 times and fluorescent detection was then carried out by fluorescent confocal microscopy and flow cytometry. The autophagy labeling protein LC3II was measured by Western blot.

[4] = tested on: MCF-7 breast carcinoma cells; test: Annexin V/PI flow cytometry, apoptosis and cell cycle of MCF-7 cells; format: cell-based; conditions: P<0.01
Method: as §2

MCF-7 implant tumor = MCF-7 implant tumor model in nude mice; format: in vivo
Method: SR59230A reduced implant tumor volume in MCF-7 nude mice. 10^7 of MCF-7 cells were subcutaneously injected into 5-week old female nude mice to establish implant tumor model. 10 days followed the injection, tumor volume increased to about 250 mm^3. The mice were randomly divided into two groups with each group having 8 mice. The treatment group was peritoneally injected with SR56230A at 100 nmol for each mouse. The injection was carried every two days and lasted for 5 weeks. The control group is administrated with solvents with same volume. The length, width and height of tumors were determined using a vernier caliper prior to each administration, so as to calculate tumor volume. The tumor growth curve was shown in FIG. 8, in which SR59230A treated mice had slower implant tumor growth rat when compared to control group (FIG. 9). […] In order to determine expression levels of phospho-4E-BP1(Thr37/46) and p62, the tumor tissue was obtained for paraffin embedding and section and then immunohistochemistry, and proteins were extracted from the tumor tissue for Western blot.

[5] = tested on: prostatic cancer cells PC-3; test: Autophagy of prostatic cancer cells PC-3 (FIG. 17); format: cell-based, Human; conditions: FIG. 17 legend only
MCF-7 cells = test: Western blot of p53 and SIRT1 in MCF-7 cells treated with SR59230A; format: cell-based; conditions: 24 h, with increasing SR59230A concentration
Method: MCF-7 cells were treated with SR59230A at different concentrations. After 24 h, the cells were lysed to extract total protein. The protein concentration was determined by BCA method. 10 μg of the protein was used to perform 10% SDS PAGE, and then transferred to a PVDF membrane. The membrane was blocked for 1 h with TBST (10 mmol/L Tris HCl, pH 7.5, 150 mmol/L NaCl, 0.1% Tween 20) containing 4% fat-free milk, and incubated overnight with p53 antibody (1:1000) and SIRT1 antibody (1:1000) at 4° C. The membrane was further incubated with secondary antibodies for 1 h after washing, followed by ECL color development. The same procedure was repeated 3 times. The gray values of protein bands were obtained through Fluorchem 8900 software and the ratio of target band to reference band (GAPDH) was calculated. Results are shown in FIGS. 1 and 2, wherein the expression level of p53 was increased as the increase of SR59230A concentration, while SIRT1 was decreased.

[6] = tested on: multidrug resistance-associated protein 1 (MRP1); test: 5-CFDA (MRP1 substrate) efflux staining in PC-3 cells; format: cell-based, Human; conditions: PC-3, 10^−7M, 18 h, confocal microscopy
Method: Beta-3 receptor activated multidrug resistance-associated protein 1 (MRP1). Human prostatic cancer cells PC-3 was used to be treated with SR59230A and BRL37344, each at 10^−7M, for 18 h and then stained with substrate of MRP1, 5-CFDA and observed under confocal microscopy.

[7] = 8 h, quantitative PCR, compared to control
[8] = Annexin V/PI flow cytometry, P<0.01
[9] = 100 nmol per mouse peritoneally every two days for 5 weeks
[10] = tumor tissue, immunohistochemistry and Western blot

Structure (SMILES): C[C@H](Cc1ccc(OCC(=O)O)cc1)NC[C@H](O)c1cccc(Cl)c1 [BRL37344]
- cardiac hypertrophy [1]: alleviate
- ratio of left ventricular weight to body weight (LVW/BW) [1]: decreases
- cardiac function ([1]; heart B-ultrasonography): improve
- cardiac cell apoptosis ([1]; tunel method): decreases
- SIRT1 expression in heart tissue ([1]; western blot): increases
- p53 expression in heart tissue ([1]; western blot): decreases
- level of β-galactosidase [2]: decreased
- binding of Rictor to α-Tubulin [3]: promoted
- binding of mTOR to α-Tubulin in spindle apparatus [3]: promoted
- mTOR/Rictor complex (rat cardiomyocyte): increased

Structure (SMILES): CCc1ccccc1OC[C@@H](O)CN[C@H]1CCCc2ccccc21 [SR59230A]
- mitophagy (K562 leukaemia cells): induce
- expression of miR-15a (K562 leukaemia cells; [7]): significantly increased
- expression of miR-16-1 (K562 leukaemia cells; [7]): significantly increased
- intracellular ATP level (K562 leukaemia cells; ATP Kit): reduce
- apoptosis rate (K562 leukaemia cells; [8]): increased
- mitochondrial membrane potential (K562 leukaemia cells; JC1): decrease
- mitochondrial content (K562 leukaemia cells; MitoTracker Red CMXRos): decrease
- mitophagy (HL-60 leukaemia cells): induce
- expression of miR-15a (HL-60 leukaemia cells; [7]): significantly increased
- expression of miR-16-1 (HL-60 leukaemia cells; [7]): significantly increased
- intracellular ATP level (HL-60 leukaemia cells; ATP Kit): reduce
- apoptosis rate (HL-60 leukaemia cells; [8]): increased
- mitochondrial membrane potential (HL-60 leukaemia cells; JC1): decrease
- mitochondrial content (HL-60 leukaemia cells; MitoTracker Red CMXRos): decrease
- apoptosis of H1975 cells (H1975 lung cancer cells): promoted apoptosis
- apoptosis of H1299 cells (H1299 lung cancer cells): promoted apoptosis
- autophagosome (MCF7 cells): increased
- mitochondrion amount (MCF7 cells; MitoTracker): significantly decreased
- LC3II expression (MCF7 cells; Western blot): increased
- apoptosis rate versus control group [4]: significant increase
- relative tumor growth rate T/C (%) (MCF-7 implant tumor; [9]): 39.80%
- tumor inhibition rate (MCF-7 implant tumor; [9]): 57.97%
- tumor volume based on the control group (MCF-7 implant tumor; [9]): 42.03%
- implant tumor growth rate compared to control group (MCF-7 implant tumor; 100 nmol per mouse peritoneally every two days for 5 weeks, tumor growth curve): slower
- glycolysis in tumors (MCF-7 implant tumor; PET/CT detection): inhibited
- expression of p62 (MCF-7 implant tumor; [10]): reduced
- expression of phospho-4E-BP1 (MCF-7 implant tumor; [10]): reduced
- mTOR activity in tumors (MCF-7 implant tumor; [10]): inhibited
- mitophagy in tumor cells (MCF-7 implant tumor; tumor tissue, transmission electron microscope): enhanced
- autophagy of prostatic cancer cells PC-3 [5]: increased
- expression level of SIRT1 (MCF-7 cells): decreased
- expression level of p53 (MCF-7 cells): increased
- 5-CFDA efflux (MRP1 substrate) [6]: inhibited
